The subject of series [1] is HCT-116 (human colon carcinoma cells). The experiment in a line: MTT cytotoxicity, HCT-116 cells. It counts as cell-based. The conditions noted are these: Homo sapiens, HCT-116, 72 h exposure, three independent experiments, read-out: Cytotoxic activity IC50 (95% CI) HCT-116. How it is done: (§1) Compounds were evaluated for antitumor activity in cell culture in vitro using several human cancer cell lines obtained from the National Cancer Institute, NCI (Bethesda, MD, USA). […] The L929 cells were cultivated under standard conditions in DMEM with Earle’s salts. […] At the end of the incubation time (72 h), the plates were centrifuged and the medium was replaced by fresh medium (200 μL) containing 0.5 mg/mL MTT. After 3 h, the MTT formazan product was dissolved in DMSO (150 μL) and the absorbance was measured using a multiplate reader (Spectra Count, Packard, ON, Canada). The impact of compounds on cell proliferation was quantified as the percentage of control absorbance of the reduced dye at 550 nm. All cell culture based studies were performed in triplicate. All cells were mycoplasma-free.

For series [2], the system named is PC3 (human prostate cancer cells). The experiment in a line: MTT cytotoxicity, PC3 cells. It counts as cell-based. The conditions noted are these: Homo sapiens, PC-3, 72 h exposure, three independent experiments, read-out: Cytotoxic activity IC50 (95% CI) PC3. How it is done: as §1
Series [3] relates to SF295 (human glioblastoma cells). The experiment in a line: MTT cytotoxicity, SF295 cells. Type of series: cell-based. The conditions noted are these: Homo sapiens, SF-295, 72 h exposure, three independent experiments, read-out: Cytotoxic activity IC50 (95% CI) SF295. How it is done:
as §1

The nature of series [4]: MTT cytotoxicity, L929 normal cells. Type of series: cell-based, mouse. The conditions noted are these: mouse, normal cell line, 72 h exposure, three independent experiments, read-out: Cytotoxic activity IC50 (95% CI) L929. How it is done:
as §1

The subject of series [5] is NCIH-460 (human lung cells). The experiment in a line: MTT cytotoxicity, NCIH-460 cells. Particulars: Homo sapiens, NCI-H460, 72 h exposure, three independent experiments, read-out: Cytotoxic activity IC50 (95% CI) NCIH-460. It counts as cell-based. How it is done: as §1
The subject of series [6] is HL-60 (human promyelocytic leukemia cells). The experiment in a line: MTT cytotoxicity, HL-60 cells. It counts as cell-based. Particulars: Homo sapiens, HL-60, 72 h exposure, three independent experiments, read-out: Cytotoxic activity IC50 (95% CI) HL-60. How it is done:
as §1

In the case of `O=C1C=C([Se]c2ccccc2)C(=O)c2ccccc21` [Compound 2, 2-(Phenylselanyl)naphthalene-1,4-dione], the IC50 in series [1] is above 10 µM; in series [2], above 10 µM; in series [3], above 10 µM; in series [5], above 10 µM; in series [6], 1.96 µM. In series [4], the IC50 at 72 h was above 10 µM.

Consider `COc1ccc([Se]C2=CC(=O)c3ccccc3C2=O)cc1` [Compound 3, 2-((4-Methoxyphenyl)selanyl)naphthalene-1,4-dione], for which the melting point lay within 140.7 to 148.3 °C. In addition, in series [1], the IC50 was above 10 µM. Further, the IC50 in series [2] was above 10 µM. Besides, in series [3], the IC50 is above 10 µM. In series [4], the IC50 at 72 h is above 10 µM. Also, the IC50 in series [5] is above 10 µM. For the same compound, the IC50 in series [6] was 4.68 µM.

In turn, `O=C1C=C([Se]c2ccc(Cl)cc2)C(=O)c2ccccc21` [Compound 4, 2-((4-Chlorophenyl)selanyl)naphthalene-1,4-dione] came in with a melting point of 154.8 to 155.7 °C. Further, in series [1], the half-inhibitory concentration (IC50) was above 10 µM. For the same compound, the IC50 in series [2] is above 10 µM. Moreover, the half-maximal inhibitory concentration (IC50) in series [3] was above 10 µM. In addition, in series [4], the concentration for half-maximal inhibition (IC50) at 72 h was above 10 µM. In addition, the IC50 in series [5] was above 10 µM. Further, the IC50 in series [6] turned out to be 2.25 µM.

In turn, `O=C1C=C([Se]c2ccc(F)cc2)C(=O)c2ccccc21` [Compound 5, 2-((4-Fluorophenyl)selanyl)naphthalene-1,4-dione] returned a melting point of 139.2 to 139.9 °C. In addition, the IC50 in series [1] was above 10 µM. Also, the IC50 in series [2] is above 10 µM. Also, the IC50 in series [3] is above 10 µM. In series [4], the IC50 at 72 h is above 10 µM. In addition, in series [5], the IC50 was above 10 µM. Further, the IC50 in series [6] is 2.16 µM.

For the compound `COC1=C(CN=[N+]=[N-])C(=O)c2ccccc2C1=O` [Compound 8, 2-(Azidomethyl)-3-methoxynaphthalene-1,4-dione], the IC50 in series [1], in series [2], in series [3], in series [5] and in series [6] was above 10 µM in each case. In series [4], the IC50 at 72 h was above 10 µM.

`COC1=C(Cn2cc(-c3ccccc3)nn2)C(=O)c2ccccc2C1=O` [Compound 9, 2-Methoxy-3-((4-phenyl-1H-1,2,3-triazol-1-yl)methyl)naphthalene-1,4-dione]: the melting point lay in the range of 103.8 to 104.7 °C. Also, in series [1], the IC50 is above 10 µM. In series [2], the IC50 was above 10 µM. In series [3], the IC50 was above 10 µM. Further, the IC50 at 72 h in series [4] is above 10 µM. For the same compound, the IC50 in series [5] was above 10 µM. The IC50 in series [6] was 5.39 µM.

As for `COC1=C(Cn2cc(-c3ccc([N+](=O)[O-])cc3)nn2)C(=O)c2ccccc2C1=O` [Compound 10, 2-Methoxy-3-((4-(4-nitrophenyl)-1H-1,2,3-triazol-1-yl)methyl)naphthalene-1,4-dione], the melting point was in the range of 205.8 to 206.7 °C. Besides, the IC50 in series [1] was above 10 µM. In series [2], the IC50 was above 10 µM. The IC50 in series [3] is above 10 µM. Further, the IC50 at 72 h in series [4] is above 10 µM. In series [5], the IC50 was above 10 µM. The IC50 in series [6] is above 10 µM.

In the case of `COC1=C(Cn2cc(-c3ccc(OC)cc3)nn2)C(=O)c2ccccc2C1=O` [Compound 11, 2-Methoxy-3-((4-(4-methoxyphenyl)-1H-1,2,3-triazol-1-yl)methyl)naphthalene-1,4-dione], the melting point was in the range of 149.3 to 150.7 °C. Besides, the concentration for half-maximal inhibition (IC50) in series [1] was above 10 µM. Also, in series [2], the IC50 was above 10 µM. The IC50 in series [3] was above 10 µM. Also, the IC50 at 72 h in series [4] was above 10 µM. For the same compound, the IC50 in series [5] is above 10 µM. For the same compound, in series [6], the IC50 is 2.32 µM.

Regarding `COC1=C(Cn2cc(-c3ccc(C)cc3)nn2)C(=O)c2ccccc2C1=O` [Compound 12, 2-Methoxy-3-((4-(p-tolyl)-1H-1,2,3-triazol-1-yl)methyl)naphthalene-1,4-dione], the melting point was 123.1 to 124.5 °C. In addition, the IC50 in series [1] was above 10 µM. Also, in series [2], the IC50 was above 10 µM. Besides, the IC50 in series [3] is above 10 µM. Also, the IC50 at 72 h in series [4] was above 10 µM. Besides, the IC50 in series [5] was above 10 µM. In addition, in series [6], the IC50 was above 10 µM.

As for `COC1=C(Cn2cc(-c3ccc(Br)cc3)nn2)C(=O)c2ccccc2C1=O` [Compound 13, 2-((4-(4-Bromophenyl)-1H-1,2,3-triazol-1-yl)methyl)-3-methoxynaphthalene-1,4-dione], the melting point was in the range of 174.1 to 175 °C. In series [1], the IC50 is above 10 µM. In addition, the IC50 in series [2] is above 10 µM. Further, the IC50 in series [3] was above 10 µM. The half-maximal inhibitory concentration (IC50) at 72 h in series [4] was above 10 µM. Further, the IC50 in series [5] was above 10 µM. Moreover, in series [6], the IC50 is above 10 µM.

Regarding `COC1=C(Cn2cc(C[Se]c3ccccc3)nn2)C(=O)c2ccccc2C1=O` [Compound 14, 2-Methoxy-3-((4-((phenylselanyl)methyl)-1H-1,2,3-triazol-1-yl)methyl)naphthalene-1,4-dione], the melting point lay within 69 to 71 °C. Also, in series [1], the IC50 was above 10 µM. In series [2], the IC50 is above 10 µM. Further, the IC50 in series [3] was above 10 µM. Further, in series [4], the IC50 at 72 h was above 10 µM. In addition, the IC50 in series [5] is above 10 µM. In addition, in series [6], the IC50 was above 10 µM.

In the case of `COC1=C(Cn2cc(C[Se]c3ccc(OC)cc3)nn2)C(=O)c2ccccc2C1=O` [Compound 15, 2-Methoxy-3-((4-(((4-methoxyphenyl)selanyl)methyl)-1H-1,2,3-triazol-1-yl)methyl)naphthalene-1,4-dione], the IC50 in series [1], in series [2], in series [3], in series [5] and in series [6] was above 10 µM each time. Further, the 50% inhibitory concentration (IC50) at 72 h in series [4] is above 10 µM.

On to `CC1(C)OC2=C(C(=O)C(=O)c3ccccc32)C(n2cc(C[Se]c3ccc(Cl)cc3)nn2)C1Br` (stereo not drawn) [Compound 17, 3-Bromo-4-(4-(((4-chlorophenyl)selanyl)methyl)-1H-1,2,3-triazol-1-yl)-2,2-dimethyl-3,4-dihydro-2H-benzo[h]chromene-5,6-dione], for which the melting point fell in the range of 185.3 to 187.1 °C. Also, the IC50 in series [1] is above 8 µM. Further, in series [2], the IC50 worked out at 2.03 µM. Besides, in series [3], the IC50 was found to be 2.6 µM. For the same compound, the 50% inhibitory concentration (IC50) at 72 h in series [4] came out at 0.52 µM. The IC50 in series [5] is 2.06 µM. Moreover, the IC50 in series [6] worked out at 0.81 µM.

Compound `CC1(C)OC2=C(C(=O)C(=O)c3ccccc32)C(n2cc(C[Se]c3ccc(F)cc3)nn2)C1Br` (stereo not drawn) [Compound 18, 3-Bromo-4-(4-(((4-fluorophenyl)selanyl)methyl)-1H-1,2,3-triazol-1-yl)-2,2-dimethyl-3,4-dihydro-2H-benzo[h]chromene-5,6-dione] came in with a melting point of 187.1 to 190 °C. The IC50 in series [1] was 0.37 µM. Further, in series [2], the IC50 was found to be 1.06 µM. In series [3], the IC50 came out at 1.48 µM. For the same compound, the IC50 at 72 h in series [4] came out at 0.36 µM. In series [5], the IC50 was found to be 1.32 µM. In addition, in series [6], the IC50 was found to be 0.59 µM.

Regarding `COc1cccc2c1C(=O)c1c(O)c3c(c(O)c1C2=O)C[C@@](O)(C(=O)CO)C[C@@H]3O[C@H]1C[C@H](N)[C@H](O)[C@H](C)O1` [DOXO, Doxorubicin, reference compound], the IC50 in series [1] came to 0.21 µM; in series [2], 0.76 µM; in series [6], 0.02 µM. For the same compound, the IC50 at 72 h in series [4] was 1.72 µM.

A word on the IC50: it is the midpoint of a concentration-inhibition curve. For orientation: melting point means the temperature of the solid-liquid transition.
